# Measured values as given in patent US11273167B2, “Compositions and methods for modulating ABHD2 activity” (The Regents of the University of California, priority 2015, dated 2022).
# “Also recorded” adds a separate entry of the source. Read-outs that look alike come from different tables or passages of the source.
# Key:
# human CatSper channel [1] = assay: Whole-cell patch-clamp recording of CatSper currents (ICatSper) from human spermatozoa; assay type: cell-based; conditions: for activation of CatSper current (ICatSper): whole-cell patch clamp; for effect on P4-dependent activation of CatSper (CatSper P4 sensitivity): human spermatozoa treated with the agent, then P4
# Description: (§1) All CatSper recordings was performed as described in (Lishko et al., 2013; Lishko et al., 2011). Briefly, gigaohm seal between the patch pipette and human spermatozoon was formed at the cytoplasmic droplet. Spermatozoa were patched either at the cytoplasmic droplet or, if the cytoplasmic droplet was inconspicuous, at the neck region. Seals were formed in high saline (HS) solution containing: 130 mM NaCl, 5 mM KCl, 1 mM MgSO4, 2 mM CaCl2, 5 mM glucose, 1 mM sodium pyruvate, 10 mM lactic acid, 20 mM HEPES, pH 7.4 adjusted with NaOH, 320 mOsm/L. Transition into the whole-cell mode was performed by applying short voltage pulses. Access resistance was 25-40 M. Cells were stimulated every 5 s. Data were sampled at 2-5 kHz and filtered at 1 kHz. Pipettes (11-17 MΩ) for whole-cell patch-clamp recordings of monovalent CatSper currents were filled with (in mM): 130 Cs-methanesulfonate, 70 HEPES, 3 EGTA, 2 EDTA, 0.5 TrisHCl, pH 7.4 adjusted with CsOH. Bath divalent free (DVF) solution for recording of monovalent CatSper currents contained (in mM): 140 Cs-methanesulfonate, 40 HEPES, 1 EDTA, pH 7.4 adjusted with CsOH. HEPES was substituted for MES in the event when acidic extracellular pH was used. HS solution was used to record baseline current while measuring monovalent CatSper currents (Ca^2+ in HS solution inhibits monovalent CatSper currents and causes Ca^2+-dependent inactivation of CatSper channels). Osmolarities of above mentioned solutions were approximately 321 mOsm/L and 335 mOsm/L for bath and pipette solutions, respectively. All electrophysiology experiments were performed at ambient temperature. IcatSper were elicited by voltage ramps from a holding potential of 0 mV. Ramps were applied from −80 mV to +80 mV. Data were analysed with Origin 7.0 and Clampfit 9.2. Statistical data were calculated as the mean±S.E.M., and (n) indicates number of experiments. To determine IcatSper inactivation rate current densities extracted from voltage ramps and acquired at +80 pA were plotted against time. The data were fitted with Boltzmann equation y=1/(1+exp((x−t)/dx)) and mean ti numbers were determined from (n) independent experiments. Statistical significance (t-test) is indicated by (**, p≤0.01 and *, p≤0.05).
# (§2) Data were analyzed with Origin 7.0 and Clampfit 9.2. Statistical data were calculated and represented everywhere in text as the mean±S.E.M., and (n) indicates number of experiments. To determine ICatSper inactivation rate current densities extracted from voltage ramps and acquired at +80 pA were plotted against time. The data were fitted with Boltzmann equation y=1/[1+exp((x−τ)/dx)] and mean τ numbers were determined from (n) independent experiments. Hill equation was used to build dose-response curve: y=Vmax*x^n/(k^n+x^n). where n defines Hill slope factor, k defines IC50, and Vmax is close to 100% inhibition. Statistical significance (t test) is indicated by (****P<0.0001, ***P<0.001, **P<0.005 and *P<0.05).
# mouse CatSper = target: T1, mouse CatSper (Mus musculus, UniProt A2ARP9+Q80W99+Q8BVN3+Q91ZR5); assay: Whole-cell patch-clamp recording of ICatSper from mouse spermatozoa; assay type: cell-based
# T1 construct: Mouse spermatozoa were isolated from cauda epididymis; endogenous in cells; host or cells: mouse cauda epididymal spermatozoa
# human CatSper channel [2] = target: human CatSper channel (Homo sapiens, UniProt Q7RTX7+Q86XQ3+Q8NEC5+Q96P56); assay: Whole-cell patch-clamp recording of CatSper currents (ICatSper) from human spermatozoa; assay type: cell-based
# Sequence of human CatSper channel (Homo sapiens, UniProt Q7RTX7+Q86XQ3+Q8NEC5+Q96P56) (Q8NEC5 whole entry): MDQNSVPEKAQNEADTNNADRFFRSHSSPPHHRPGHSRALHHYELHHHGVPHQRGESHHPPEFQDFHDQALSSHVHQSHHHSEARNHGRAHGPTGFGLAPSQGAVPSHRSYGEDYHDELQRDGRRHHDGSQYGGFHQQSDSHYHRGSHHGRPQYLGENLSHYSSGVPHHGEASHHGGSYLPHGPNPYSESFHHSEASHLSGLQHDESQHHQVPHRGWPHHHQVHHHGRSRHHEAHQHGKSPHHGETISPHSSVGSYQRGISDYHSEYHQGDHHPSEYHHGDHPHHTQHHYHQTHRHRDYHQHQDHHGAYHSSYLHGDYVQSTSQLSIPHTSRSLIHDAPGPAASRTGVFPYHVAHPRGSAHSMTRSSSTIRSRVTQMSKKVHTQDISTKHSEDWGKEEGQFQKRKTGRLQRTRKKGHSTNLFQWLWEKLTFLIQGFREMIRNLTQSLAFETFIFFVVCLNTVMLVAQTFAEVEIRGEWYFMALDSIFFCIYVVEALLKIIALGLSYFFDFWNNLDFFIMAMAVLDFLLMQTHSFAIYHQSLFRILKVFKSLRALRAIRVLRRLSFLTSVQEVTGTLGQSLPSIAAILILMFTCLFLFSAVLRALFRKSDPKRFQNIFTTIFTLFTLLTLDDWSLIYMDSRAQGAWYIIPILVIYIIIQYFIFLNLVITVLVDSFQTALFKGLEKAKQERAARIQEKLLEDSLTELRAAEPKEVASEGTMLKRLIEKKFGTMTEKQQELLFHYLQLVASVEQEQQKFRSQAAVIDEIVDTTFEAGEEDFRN
# Sequence of human CatSper channel (Homo sapiens, UniProt Q7RTX7+Q86XQ3+Q8NEC5+Q96P56) (Q86XQ3 whole entry): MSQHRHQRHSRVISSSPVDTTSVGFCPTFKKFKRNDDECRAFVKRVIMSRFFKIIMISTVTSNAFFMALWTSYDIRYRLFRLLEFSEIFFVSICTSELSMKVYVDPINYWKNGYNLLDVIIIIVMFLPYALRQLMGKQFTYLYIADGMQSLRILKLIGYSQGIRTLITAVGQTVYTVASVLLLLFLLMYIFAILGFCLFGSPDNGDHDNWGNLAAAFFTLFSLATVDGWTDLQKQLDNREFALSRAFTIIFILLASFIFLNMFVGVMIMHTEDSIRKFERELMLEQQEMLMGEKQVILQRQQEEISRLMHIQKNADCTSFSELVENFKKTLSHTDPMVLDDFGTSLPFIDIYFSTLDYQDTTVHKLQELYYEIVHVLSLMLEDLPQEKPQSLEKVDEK
# Sequence of human CatSper channel (Homo sapiens, UniProt Q7RTX7+Q86XQ3+Q8NEC5+Q96P56) (Q96P56 whole entry): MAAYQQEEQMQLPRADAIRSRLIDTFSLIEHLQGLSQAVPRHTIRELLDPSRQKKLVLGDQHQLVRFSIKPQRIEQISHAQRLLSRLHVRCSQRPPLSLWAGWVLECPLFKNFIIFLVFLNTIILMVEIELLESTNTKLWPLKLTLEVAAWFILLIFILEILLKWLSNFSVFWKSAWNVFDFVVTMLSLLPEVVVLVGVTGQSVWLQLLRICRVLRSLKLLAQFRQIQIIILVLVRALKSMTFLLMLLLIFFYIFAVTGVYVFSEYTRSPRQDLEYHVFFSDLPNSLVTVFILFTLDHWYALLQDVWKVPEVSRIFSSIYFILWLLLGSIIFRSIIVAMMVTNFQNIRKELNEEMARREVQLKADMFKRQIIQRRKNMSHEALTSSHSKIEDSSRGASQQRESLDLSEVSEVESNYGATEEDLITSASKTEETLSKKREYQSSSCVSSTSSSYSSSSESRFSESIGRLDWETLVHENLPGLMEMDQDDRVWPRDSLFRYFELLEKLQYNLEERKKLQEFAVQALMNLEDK
# Sequence of human CatSper channel (Homo sapiens, UniProt Q7RTX7+Q86XQ3+Q8NEC5+Q96P56) (Q7RTX7 whole entry): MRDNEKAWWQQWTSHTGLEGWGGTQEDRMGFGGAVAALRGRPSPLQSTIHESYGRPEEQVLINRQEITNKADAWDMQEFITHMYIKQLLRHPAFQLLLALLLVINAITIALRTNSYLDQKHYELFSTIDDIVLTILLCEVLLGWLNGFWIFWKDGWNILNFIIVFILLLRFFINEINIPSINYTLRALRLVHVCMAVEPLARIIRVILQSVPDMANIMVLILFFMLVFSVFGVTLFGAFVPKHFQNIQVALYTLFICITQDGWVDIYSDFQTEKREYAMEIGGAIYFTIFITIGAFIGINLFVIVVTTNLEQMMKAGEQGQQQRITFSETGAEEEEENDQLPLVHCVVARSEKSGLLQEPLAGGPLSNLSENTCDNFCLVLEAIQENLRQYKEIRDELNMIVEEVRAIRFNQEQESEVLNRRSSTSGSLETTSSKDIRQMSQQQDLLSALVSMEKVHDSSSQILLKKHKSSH
# Description: as §1, §2
# ABHD2 = target: T2, ABHD2 (Homo sapiens, UniProt P08910); assay: P4* UV cross-linking and streptavidin pull-down from human sperm, ABHD2 western blot; assay type: binding; conditions: 250 nM P4*
# T2 construct: endogenous in cells; host or cells: human spermatozoa
# T2 sequence (P08910 1-425): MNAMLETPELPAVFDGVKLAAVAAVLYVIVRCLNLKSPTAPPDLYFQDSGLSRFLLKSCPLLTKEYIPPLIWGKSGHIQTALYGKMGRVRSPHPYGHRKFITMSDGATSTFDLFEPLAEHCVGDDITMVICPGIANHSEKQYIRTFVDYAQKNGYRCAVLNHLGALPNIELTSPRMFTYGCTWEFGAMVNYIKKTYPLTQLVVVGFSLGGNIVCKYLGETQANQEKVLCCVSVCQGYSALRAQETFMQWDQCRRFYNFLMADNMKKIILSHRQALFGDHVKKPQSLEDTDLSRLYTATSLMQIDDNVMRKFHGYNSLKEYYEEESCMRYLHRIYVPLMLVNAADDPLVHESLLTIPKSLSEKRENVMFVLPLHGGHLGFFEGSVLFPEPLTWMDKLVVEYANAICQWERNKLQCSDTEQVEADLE
# Description: After collection, sperm cells were treated with 0.5 units (U) of PI-PLC ([…]; Life Technologies, Carlsbad, Calif.) and incubated at 37° C. for an hour. […] Lysates were added to streptavidin coated magnetic beads (65001; Life Technologies, Carlsbad, Calif.) on ice for another thirty minutes with gentle agitation. Bound proteins were eluted by boiling in Laemmli Sample Buffer in the presence of beta-mercaptoethanol and subjected to SDS-polyacrylamide gel electrophoresis. […] Bands were excised and subjected to in-gel trypsinization after which peptides were extracted and dried for use in proteomic analysis. Protease inhibitors were used throughout the following procedure. Highly motile sperm swim-up fraction was subjected to osmotic shock by a 5 min incubation in 0.5×HS solution, addition of 10 mM EDTA and 10 mM DTT for 10 min, and sonication in a water bath at 25° C. for 5 min. Osmolarity was adjusted by addition of 10×PBS. 5× Laemmli sample buffer was added to a final 1× concentration and the DTT concentration adjusted to 20 mM. An additional 5 min sonication and boiling at 100° C. for 5 min were performed. Total crude cell lysate was loaded onto a 4-20% gradient Tris-HCl CriterionTM SDS-PAGE gel (BioRad). […] Following transfer to PVDF membranes, blots were blocked in 0.1% PBS-Tween20 with 3% IgG free BSA for 15 min and incubated in primary antibodies overnight at 4° C. […]
# human CatSper channel [3] = conditions: shown previously (Lishko et al., 2011); cited from earlier work
# mouse spermatozoa = assay: Acrosome exocytosis assessment in live capacitated mouse sperm; assay type: cell-based; conditions: 3 μM P4, 3 μM AA
# [4] = human spermatozoa, extracellular application
compound,measurement,setting,value
lysophosphatidylethanolamine [lyso-PE],effect on nascent/basal CatSper current,human CatSper channel [1]; [4],Neither lysophosphatidylinositol (lyso-PI) nor lysophosphatidylethanolamine (lyso-PE) affected nascent CatSper current
"CCCCC/C=C\C/C=C\C/C=C\C/C=C\CCCC(=O)OC(CO)CO [2-AG, 2-arachidonoylglycerol]",inhibition of mouse ICatSper,mouse CatSper; compared with human ICatSper,inhibits mouse ICatSper but with less efficacy than it inhibits human ICatSper
same,percent inhibition against the outward current,"mouse CatSper; mouse CatSper, n=5",73.9±4.4%
same,effect on nascent/basal CatSper current,human CatSper channel [1],inhibited ICatSper
same,inhibition of ICatSper on intracellular application,human CatSper channel [2],could not mimic this effect
same,percent inhibition of CatSper outward current,human CatSper channel [2],92.4±3.5%
same,"rate of CatSper inactivation, decline in current amplitude τ",human CatSper channel [2],1.6 ± 0.3 min
same,IC50,"human CatSper channel [2]; read-out: median inhibitory concentration (IC50) of ICatSper, inward currents",670 nM
same,IC50,"human CatSper channel [2]; read-out: median inhibitory concentration (IC50) of ICatSper, outward currents",350 nM
CC(=O)[C@@]1(O)CC[C@H]2[C@@H]3CCC4=CC(=O)CC[C@]4(C)[C@H]3CC[C@@]21C [17-OH—P],activation of CatSper current (ICatSper),human CatSper channel [1]; human spermatozoa,reversibly activated
"CCCCC/C=C\C/C=C\C/C=C\C/C=C\CCCC(=O)OCC(O)CO (centres unmarked) [1-AG, 1-arachidonoylglycerol]",effect on nascent/basal CatSper current,human CatSper channel [1],inhibited ICatSper
same,percent inhibition of CatSper outward current,human CatSper channel [2],85.0±0.5%
same,"rate of CatSper inactivation, decline in current amplitude τ",human CatSper channel [2],2.7 ± 0.2 min
"CCCCC[C@H](O)/C=C/[C@H]1[C@H](O)CC(=O)[C@@H]1CCCCCCC(=O)O [PGE1, prostaglandin E1]",activation of CatSper current (ICatSper),human CatSper channel [1]; human spermatozoa,stimulated CatSper activation
estrogen,ABHD2 in P4* pull-down in the presence of competing steroid,ABHD2,ABHD2 presence in pull-down experiments
same,interference with P4 activation of CatSper,human CatSper channel [3],do not interfere with P4 activation of CatSper
lysophosphatidylinositol [lyso-PI],effect on nascent/basal CatSper current,human CatSper channel [1]; [4],Neither lysophosphatidylinositol (lyso-PI) nor lysophosphatidylethanolamine (lyso-PE) affected nascent CatSper current
"CCCCC/C=C\C/C=C\C/C=C\C/C=C\CCCC(=O)NCCO [AEA, anandamide]",effect on nascent/basal CatSper current,human CatSper channel [1],does not change nascent CatSper behaviour; also recorded: had no effect
"CCCCC/C=C\C/C=C\C/C=C\C/C=C\CCCC(=O)O [AA, arachidonic acid]",stimulation of mouse acrosome reaction (AR),mouse spermatozoa,stimulate mouse AR to similar levels
same,regulation of CatSper by arachidonic acid,human CatSper channel [1]; ICatSper at +80 mV and −80 mV over time,Dual Regulator of CatSper
OCC(O)CO [glycerol],effect on P4-dependent activation of CatSper (CatSper P4 sensitivity),human CatSper channel [1],did not ablate ICatSper or its regulation by P4
same,effect on nascent/basal CatSper current,human CatSper channel [1]; [4],did not ablate ICatSper
O=C(Nc1ccccc1)N1CCC(Cc2cnc3ccccc3c2)CC1 [PF750],effect on P4-dependent activation of CatSper (CatSper P4 sensitivity),human CatSper channel [1],did not change CatSper sensitivity to P4
